This note sets out measurements from patent publication US8722897B2, “Metal complexes of thiourea and derivatives as metal delivering anti-cancer and anti-inflammatory agents” (priority 2010, dated 2014).

The structures appear in SMILES notation.

Data set [1] is described as follows: Cytotoxicity assay (MTT), NCI-H460. The settings on record: human, NCI-H460 cells.
Protocol: (§1) Cells were seeded in a 96-well flat-bottomed microplate at 20,000 cells/well in 150 μL of growth medium solution. The compounds were dissolved in dimethyl sulfoxide. Serial dilution of each complex was added to each well with final concentration of DMSO≦1%. The microplate was incubated at 37° C., 5% CO2, 95% air in a humidified incubator for 72 h. After incubation, 10 μL MTT reagent (5 mg/mL) was added to each well. The microplate was re-incubated at 37° C. in 5% CO2 for 4 h. Solubilization solution (10% SDS in 0.01 M HCl) (100 μL) was added to each well. The microplate was left in an incubator for 24 h. Absorbances at 550 nm were measured by a microplate reader.
Data set [2] in a line: Cytotoxicity assay (MTT), SUNE1. The settings on record: human, SUNE1 cells.
Protocol: as §1
Data set [3] deals with T1, TrxR1 (Rattus norvegicus, UniProt O89049).
T1 sequence (O89049 1-499): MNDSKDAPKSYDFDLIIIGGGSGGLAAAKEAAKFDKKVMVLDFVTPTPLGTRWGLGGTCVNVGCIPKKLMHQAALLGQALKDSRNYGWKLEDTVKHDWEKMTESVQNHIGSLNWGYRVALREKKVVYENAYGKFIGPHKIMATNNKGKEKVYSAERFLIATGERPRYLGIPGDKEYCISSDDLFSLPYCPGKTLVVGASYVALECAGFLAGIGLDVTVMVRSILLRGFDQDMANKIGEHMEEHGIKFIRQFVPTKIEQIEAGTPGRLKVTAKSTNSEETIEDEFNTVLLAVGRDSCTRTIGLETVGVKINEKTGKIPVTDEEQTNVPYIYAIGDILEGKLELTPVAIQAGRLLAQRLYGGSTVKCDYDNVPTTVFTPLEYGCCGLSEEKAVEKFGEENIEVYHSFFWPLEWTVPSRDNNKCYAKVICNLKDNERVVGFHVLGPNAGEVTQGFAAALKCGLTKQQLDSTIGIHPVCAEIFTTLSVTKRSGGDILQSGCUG
The data set can be described thus: In vitro TrxR enzyme assay, with or without NADPH pre-reduction. It is filed as biochemical. As for the experimental part: A plot of the kapp against the inhibitor concentrations followed a hyperbolic function (FIG. 8B). This is indicative of a two-step, tight-binding inhibition mechanism: […] DTNB (3 mM) and NADPH (0.2 mM) was then added. The TrxR1 activities were determined as the increases in O.D.412 nm over 10 min.

The nature of data set [4]: Cytotoxicity assay (MTT), HepG2. The conditions noted are these: human, HepG2 cells.
Protocol: as §1
The target in data set [5] is T2, NADPH-reduced TrxR1 (Rattus norvegicus, UniProt O89049).
T2 sequence (O89049 1-499): T1 sequence (O89049 1-499)
The data set can be described thus: BIAM labeling of cysteine and selenocysteine residues of TrxR1. The conditions noted are these: TrxR 0.1 μM, compound 4 μM, pH 8.5 and pH 6.5. It is filed as biochemical. An excerpt: The reduced TrxR has free —SH (Cys496) and —SeH (Sec497) groups at the C-terminal active site, making it vulnerable to be attacked by Au(I). ^20, 22, 23 These redox active sites can be probed by biotinylated iodoacetamide (BIAM), which alkylates the free —SH and —SeH groups; and the resulting adduct can be detected by western blot experiment using streptavidin-linked horseradish peroxidase (FIG. 10). ^26, 27 It has been shown that these residues can be selectively alkylated by BIAM by adjusting the pH. At pH 8.5, both —SH and —SeH are alkylated. At pH 6.5, only the —SeH is alkylated owing to the low pKa value for selenocysteine, and thus a weaker streptavidin signal was obtained in which case. […] It is highly likely that the formation of the tight enzyme-inhibitor complex (EI*) involves covalent modification of the redox active selenocysteine and cysteine residue via the Au(I) complex. ^28
NADPH-reduced TrxR1 (0.1 μM) and 1 (4 μM) were incubated in reaction buffer (100 mM phosphate buffer, pH 7.4, 1 mM EDTA) at room temperature for 1 h. […] The separated proteins were transferred to nitrocellulose membrane and the BIAM labeled proteins were detected with horseradish peroxidase conjugated streptavidin and enhanced chemiluminescence detection.

The target in data set [6] is T3, Glutathione reductase (GR) (Homo sapiens, UniProt P00390).
T3 construct: endogenous in cells; host or cells: HeLa
T3 sequence (P00390 44-522): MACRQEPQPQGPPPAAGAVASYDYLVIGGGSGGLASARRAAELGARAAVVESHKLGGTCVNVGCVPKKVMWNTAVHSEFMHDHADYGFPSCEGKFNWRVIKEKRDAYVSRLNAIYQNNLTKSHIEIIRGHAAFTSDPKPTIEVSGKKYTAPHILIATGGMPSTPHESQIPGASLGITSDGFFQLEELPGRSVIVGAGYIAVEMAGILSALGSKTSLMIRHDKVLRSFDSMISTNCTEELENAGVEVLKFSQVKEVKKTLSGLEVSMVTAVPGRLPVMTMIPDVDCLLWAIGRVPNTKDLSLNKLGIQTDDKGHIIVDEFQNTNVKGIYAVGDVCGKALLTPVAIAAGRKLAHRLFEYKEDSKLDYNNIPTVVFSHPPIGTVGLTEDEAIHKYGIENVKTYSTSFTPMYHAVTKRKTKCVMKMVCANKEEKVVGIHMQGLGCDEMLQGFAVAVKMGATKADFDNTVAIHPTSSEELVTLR
The data set can be described thus: Cellular glutathione reductase activity of treated HeLa cells. The format is cell-based. The conditions noted are these: one-hour treatment. The method, then: Cells were seeded at 2×10^5/well in 6-well plates and incubated for 24 hours. The metal thiourea compounds (10^−9 to 10^−4 M) were serially diluted and added to the cells (final DMSO concentrations≦1%). After an one-hour incubation, cells were washed thrice with phosphate buffered saline and 100 μL ice-cold lysis buffer (50 mM phosphate buffer, pH 7.4, 1 mM EDTA, 0.1% Triton-X 100) were added to the cell layer. Cell lysis was carried on ice for 5 minutes and the cell lysates were collected and stored at −80° C. or assayed immediately.
Cell lysates (10 μg proteins) were added to a mixture containing 100 mM phosphate, pH 7.4, 1 mM EDTA, 1 mM GSSG and 0.2 mM NADPH. Reaction was initiated by adding DTNB (3 mM final) and the increases in O.D.412 nm were measured for 10 min. GR activities were determined by subtracting the increases in O.D.412 nm in the absence of GSSG.

The nature of data set [7]: Cytotoxicity assay (MTT), HeLa. The conditions noted are these: human, HeLa cells.
Protocol: Cells were seeded in a 96-well flat-bottomed microplate at 20,000 cells/well in 150 μL of growth medium solution. The compounds were dissolved in dimethyl sulfoxide. Serial dilution of each complex was added to each well with final concentration of DMSO≦1%. […] After incubation, 10 μL MTT reagent (5 mg/mL) was added to each well. The microplate was re-incubated at 37° C. in 5% CO2 for 4 h. Solubilization solution (10% SDS in 0.01 M HCl) (100 μL) was added to each well. The microplate was left in an incubator for 24 h. Absorbances at 550 nm were measured by a microplate reader.

With `COc1ccc(N2CCN(c3ccc(OC)cc3)C2=[S+][Au-][S+]=C2N(c3ccc(OC)cc3)CCN2c2ccc(OC)cc2)cc1` [complex 1, [Au(TU)2]Cl], the IC50 at 72 h stood at 3.72 ± 0.3 µM in data set [1], 10.8 ± 0.2 µM in data set [2], 17.4 ± 1 µM in data set [4] and 14.6 ± 0.7 µM in data set [7]. Further, the “concentration for half maximal inhibition of TrxR” value in data set [3] (TrxR 1 nM) is “approximately equal molar concentration”. For the same molecule, the “inhibition of NADPH reduced TrxR compared with oxidized TrxR” value in data set [3] (with or without 0.2 mM NADPH pre-reduction) is “much more efficiently inhibited”. In addition, in data set [5], the “BIAM labeling of TrxR” value is reported as “inhibited”. Also, the “effect on cellular GR activity” value in data set [6] is “not affected”.
